Assay results: the NIST ThermoML archive (doi:10.1021/acs.jced.8b00236)

Test: mn = molality of the nth substance listed, in mol/kg
Settings: 75 kPa, Liquid; for viscosity: Capillary tube (Ostwald / Ubbelohde) method; for speed of sound: Frequency=3 MHz, Single path-length method; for mass density: Vibrating tube method

NCC(=O)O [2-aminoacetic acid] + O
Settings	mass density [kg/m3]	speed of sound [m/s]	viscosity [mPa·s]
288.15 K, m1 = 0.1393	1003.55	1474.2	1.166
288.15 K, m1 = 0.2791	1007.86	1482	1.185
288.15 K, m1 = 0.4196	1012.03	1489.7	1.205
288.15 K, m1 = 0.56	1016.03	1497.4	1.226
288.15 K, m1 = 0.7019	1019.92	1505	1.248
288.15 K, m1 = 0.8453	1023.68	1512.6	1.27
288.15 K, m1 = 0.9876	1027.24	1520.1	1.295
288.15 K, m1 = 1.132	1030.68	1527.5	1.318
293.15 K, m1 = 0.1393	1002.61	1490.2	1.025
293.15 K, m1 = 0.2791	1006.87	1497.7	1.044
293.15 K, m1 = 0.4196	1010.97	1505.2	1.064
293.15 K, m1 = 0.56	1014.91	1512.5	1.084
293.15 K, m1 = 0.7019	1018.74	1519.8	1.104
293.15 K, m1 = 0.8453	1022.45	1527	1.125
293.15 K, m1 = 0.9876	1025.96	1534	1.146
293.15 K, m1 = 1.132	1029.37	1541	1.166
298.15 K, m1 = 0.1393	1001.4	1504.1	0.912
298.15 K, m1 = 0.2791	1005.6	1511.4	0.929
298.15 K, m1 = 0.4196	1009.68	1518.7	0.946
298.15 K, m1 = 0.56	1013.59	1525.8	0.964
298.15 K, m1 = 0.7019	1017.38	1532.8	0.982
298.15 K, m1 = 0.8453	1021.05	1539.8	0.999
298.15 K, m1 = 0.9876	1024.54	1546.6	1.011
298.15 K, m1 = 1.132	1027.89	1553.3	1.026
303.15 K, m1 = 0.1393	999.949	1516.3	0.82
303.15 K, m1 = 0.2791	1004.11	1523.4	0.839
303.15 K, m1 = 0.4196	1008.15	1530.5	0.853
303.15 K, m1 = 0.56	1012.03	1537.5	0.869
303.15 K, m1 = 0.7019	1015.8	1544.3	0.885
303.15 K, m1 = 0.8453	1019.44	1551.2	0.901
303.15 K, m1 = 0.9876	1022.91	1557.8	0.913
303.15 K, m1 = 1.132	1026.27	1564.5	0.929
308.15 K, m1 = 0.1393	998.286	1526.7	0.734
308.15 K, m1 = 0.2791	1002.41	1533.6	0.752
308.15 K, m1 = 0.4196	1006.42	1540.5	0.772
308.15 K, m1 = 0.56	1010.28	1547.2	0.785
308.15 K, m1 = 0.7019	1014.04	1553.9	0.804
308.15 K, m1 = 0.8453	1017.7	1560.5	0.815
308.15 K, m1 = 0.9876	1021.16	1567	0.825
308.15 K, m1 = 1.132	1024.55	1573.4	0.839

NCCC(=O)O [3-aminopropanoic acid] + O
Settings	mass density [kg/m3]	speed of sound [m/s]	viscosity [mPa·s]
288.15 K, m1 = 0.1393	1003.45	1475.7	1.179
288.15 K, m1 = 0.2789	1007.7	1484.8	1.214
288.15 K, m1 = 0.4194	1011.88	1493.8	1.252
288.15 K, m1 = 0.5603	1015.98	1502.7	1.291
288.15 K, m1 = 0.7021	1020	1511.6	1.332
288.15 K, m1 = 0.8451	1023.96	1520.4	1.372
288.15 K, m1 = 0.9881	1027.81	1529	1.414
288.15 K, m1 = 1.132	1031.61	1537.5	1.46
293.15 K, m1 = 0.1393	1002.51	1491.8	1.033
293.15 K, m1 = 0.2789	1006.72	1500.8	1.065
293.15 K, m1 = 0.4194	1010.86	1509.7	1.099
293.15 K, m1 = 0.5603	1014.91	1518.5	1.134
293.15 K, m1 = 0.7021	1018.9	1527.2	1.174
293.15 K, m1 = 0.8451	1022.82	1535.9	1.216
293.15 K, m1 = 0.9881	1026.64	1544.4	1.259
293.15 K, m1 = 1.132	1030.4	1552.7	1.307
298.15 K, m1 = 0.1393	1001.3	1505.5	0.9201
298.15 K, m1 = 0.2789	1005.48	1514.3	0.9466
298.15 K, m1 = 0.4194	1009.59	1522.9	0.9744
298.15 K, m1 = 0.5603	1013.63	1531.4	0.9995
298.15 K, m1 = 0.7021	1017.6	1539.9	1.034
298.15 K, m1 = 0.8451	1021.51	1548.2	1.062
298.15 K, m1 = 0.9881	1025.34	1556.4	1.1
298.15 K, m1 = 1.132	1029.1	1564.5	1.146
303.15 K, m1 = 0.1393	999.877	1517.7	0.824
303.15 K, m1 = 0.2789	1004.02	1526.1	0.8427
303.15 K, m1 = 0.4194	1008.09	1534.5	0.8667
303.15 K, m1 = 0.5603	1012.08	1542.8	0.8942
303.15 K, m1 = 0.7021	1016	1550.9	0.9256
303.15 K, m1 = 0.8451	1019.86	1559	0.959
303.15 K, m1 = 0.9881	1023.63	1566.9	1.001
303.15 K, m1 = 1.132	1027.33	1574.7	1.042
308.15 K, m1 = 0.1393	998.23	1527.9	0.733
308.15 K, m1 = 0.2789	1002.34	1536	0.7526
308.15 K, m1 = 0.4194	1006.39	1544	0.7692
308.15 K, m1 = 0.5603	1010.35	1551.9	0.7923
308.15 K, m1 = 0.7021	1014.25	1559.7	0.8219
308.15 K, m1 = 0.8451	1018.1	1567.4	0.8509
308.15 K, m1 = 0.9881	1021.85	1574.9	0.8756
308.15 K, m1 = 1.132	1025.53	1582.3	0.9126
